According to patent publication US20240115654A1, “INTRAVENOUS ADMINISTRATION OF ENGINEERED ANTIMICROBIAL AMPHIPHILIC PEPTIDES” (priority 2021, published 2024):
Like-named read-outs stand apart in the source and are kept apart here. Peptide text beside a SMILES is read from it.

Tests used:
[1] = tested on: Enterobacter spp. isolates (Enterobacter aerogenes and E. cloacae, n = 102); assay: organism not typed
Protocol: Comparator antibiotics were supplied by Micromyx, and stock solutions were prepared on the first day of testing using solvents recommended by CLSI (1). Stock solutions of all compounds were made at 40× the final testing concentration and stored at −80° C. prior to testing. Information regarding compound source, catalog and lot number, testing concentrations and drug diluent for the comparators and test agent are detailed below in Table 3.
The test organisms evaluated in this study consisted of clinical isolates from the Micromyx Repository and reference isolates from the American Type Culture Collection (ATCC; Manassas, VA). The clinical isolates were obtained from USA hospitals. Upon initial receipt at Micromyx, the organisms were sub-cultured onto an appropriate agar medium. Following incubation, colonies were harvested from these plates and cell suspensions prepared and frozen at −80° C. with a cryoprotectant. Prior to testing, the isolates were streaked from frozen vials onto Trypticase Soy Agar with 5% sheep blood (Becton Dickenson [BD]; Sparks, MD; Lot Nos. 7173618, 7166759, 7208688, 72144895, 7228505 and Remel Lenexa, KS Lot No. 212574). Plates were incubated at 35° C. overnight.
Mueller Hinton II broth (MHB II; BD; Lot Nos. 6258541 and 7143896) was used for MIC testing of aerobic organisms.
MIC values were determined using a broth microdilution procedure described by CLSI (1, 3). Automated liquid handlers (Multidrop 384, Labsystems, Helsinki, Finland; Biomek 2000 and Biomek FX, Beckman Coulter, Fullerton CA) were used to conduct serial dilutions and liquid transfers.
To prepare the drug mother plates, which would provide the serial drug dilutions for the replicate daughter plates, the wells of columns 2-12 of standard 96-well microdilution plates (Costar 3795) were filled with 150 μl of the designated diluent for each row of drug. The test articles and comparator compounds (300 μl at 40× the highest concentration to be tested) were dispensed into the appropriate wells in column 1. The Biomek 2000 was then used to make 2-fold serial dilutions in the mother plates from column 1 through column 11. The wells of Column 12 contained no drug and served as the organism growth control wells for the assay.
The daughter plates were loaded with 185 μL per well of MHB II using the Multidrop 384. The daughter plates were completed on the Biomek FX instrument which transferred 5 μL of drug solution from each well of a mother plate to the corresponding well of each daughter plate in a single step. A standardized inoculum of each test organism was prepared per CLSI methods (1). The inoculum for each organism was dispensed into sterile reservoirs divided by length (Beckman Coulter), and the Biomek 2000 was used to inoculate the plates. Daughter plates were placed on the Biomek 2000 work surface in reverse orientation so that inoculation took place from low to high drug concentration.
Plates were stacked 3-4 high, covered with a lid on the top plate, placed in plastic bags, and incubated at 35° C. for 16 to 20 hrs. Following incubation, the microplates were removed from the incubator and viewed from the bottom using a plate viewer. […] The MIC was read and recorded as the lowest concentration of drug that inhibited visible growth of the organism.
Clinical breakpoints to determine percent resistance within a given organism group were obtained from CLSI (3), with the exception of colistin for K. pneumoniae, Enterobacter spp., and E. coli, which are only available from EUCAST.

[2] = mouse, in vivo, iv, 3 mg/kg
Text: Male CD-1 mice will be received from an approved vendor and allowed to acclimate for a minimum of two days. Fasting will be not required.
All dosing syringes will be weighed prior to and following dosing. IV doses will be administered as a slow bolus (over ˜30 seconds) via direct venipuncture of a tail vein. All animals will be observed at dosing and each scheduled collection. All abnormalities will be recorded.
Terminal blood samples will be collected via cardiac puncture following inhalation anesthesia.
Sample Processing and Storage: Blood samples will be collected into K2EDTA tubes and stored on wet ice. Whole blood will be processed to plasma by centrifugation (3500 rpm at 5° C.) within 30 minutes of collection. Plasma samples will be split into 2 equal aliquots and each transferred into 96 well plates (matrix tubes) and stored at −80° C. until analysis. Administered doses will be determined gravimetrically.
Prior to extraction, a known concentration of a mass-adjusted internal standard (IS) will be added to assess recovery and allow for quantitation. Purified samples will be further subjected to high-performance liquid chromatography (HPLC) using C18 300 or 130 angstrom columns prior to MS/MS analysis. Multiple charge states will be observed by MS, so MS/MS will be employed to enable multiple reaction monitoring (MRM) analyses to determine the most MRM transitions with the highest signal-to-noise gain. Compound plasma concentrations will be determined by comparing to and compensating with co-purified IS peak intensity and validated calibrated standard curves.
Pharmacokinetic parameters will be calculated using non-compartmental methods as implemented in the Phoenix® WinNonlin® ver. 6.3 comprehensive TK/PK analysis software program (Pharsight Corporation; Mountain View, CA) using an IV infusion model. Pharmacokinetic analysis will be conducted using a 30-minute intravenous infusion time. Therefore, 30 minutes will be added to each sample time point postdose to obtain nominal time for TK analysis. Nominal times and dosage levels will be used for all calculations. Values below the lower limit of quantitation (BLQ) will be assigned a value of zero for the pharmacokinetic calculations. Microsoft® Excel® 2013 will be used for receipt of bioanalytical data, minor formatting, including setting BLQ values to “0”, transfer into WinNonlin® for PK analysis, and calculation of the mean when an approximated value will be excluded. All plasma concentration data from all animals will be included in the analysis. Graphical presentations will be performed using Microsoft® Excel® 2013.

[3] = tested on: Pseudomonas aeruginosa ATCC 27853 (non-MDR; QC); conditions: P. aeruginosa ATCC 27853; established CLSI QC range; cited from earlier work

| Molecule | Mode (MIC) [1] [µg/mL] | Tmax [2] [min] | MIC50 ([1]; Enterobacter spp. (n = 102)) [µg/mL] | MIC90 ([1]; Enterobacter spp. (n = 102)) [µg/mL] | Mode (MIC) ([1]; Enterobacter spp. (n = 102)) [µg/mL] | % R (percent of isolates resistant) ([1]; Enterobacter spp. (n = 102), CLSI breakpoints, colistin EUCAST) [%] | MIC QC range (in parentheses under the MIC) [3] |
| --- | --- | --- | --- | --- | --- | --- | --- |
| CC(C)[C@H](NC(=O)[C@H](Cc1c[nH]c2ccccc12)NC(=O)[C@H](CCCNC(=N)N)NC(=O)[C@H](CCCNC(=N)N)NC(=O)[C@@H](NC(=O)[C@@H](NC(=O)[C@H](CCCNC(=N)N)NC(=O)[C@@H](NC(=O)[C@@H](NC(=O)[C@H](CCCNC(=N)N)NC(=O)[C@H](CCCNC(=N)N)NC(=O)[C@H](Cc1c[nH]c2ccccc12)NC(=O)[C@@H](NC(=O)[C@H](CCCNC(=N)N)NC(=O)[C@H](CCCNC(=N)N)NC(=O)[C@@H](NC(=O)[C@H](CCCNC(=N)N)NC(=O)[C@H](CCCNC(=N)N)NC(=O)[C@@H](NC(=O)[C@H](Cc1c[nH]c2ccccc12)NC(=O)[C@H](CCCNC(=N)N)NC(=O)[C@@H](N)CCCNC(=N)N)C(C)C)C(C)C)C(C)C)C(C)C)C(C)C)C(C)C)C(C)C)C(=O)N[C@@H](CCCNC(=N)N)C(=O)N[C@@H](CCCNC(=N)N)C(N)=O [SEQ ID NO: 1] (H-RRWVRRVRRVWRRVVRVVRRWVRR-NH2) | 16 | 2 |  |  |  |  |  |
| Colistin [reference compound] |  |  | 0.12 | 0.25 | 0.12 | 5.8 | (0.5-4) μg/mL |
